Converted amounts (≈) assume the structure as drawn. Like-named read-outs stand apart in the source and are kept apart here.
Key:
Type in all cases: cell-based
S. aureaus FDA-209P = test: MIC against S. aureaus FDA-209P by the plate diluted method; settings: Staphylococcus aureus, FDA209P
Description: (§1) In order to investigate the in vitro activity of the test compounds against various bacteria, the minimal inhibitory concentration (MIC) values were determined by the plate diluted method (See CHEMOTHERAPY, 22, 1126-1128, 1974.)
(§2) Each strain was adjusted to 1×10^6 cells/ml (O.D. 600 mμ, 0.07 to 0.16).

E. coli No. 29 = test: MIC against E. coli No. 29 by the plate diluted method; settings: Escherichia coli, 1×10^6 cells/ml
Description: as §1, §2

K. pneumoniae NCTC-9632 = test: MIC against K. pneumoniae NCTC-9632 by the plate diluted method; settings: Klebsiella pneumoniae, NCTC9632; K. pneumoniae NCTC-9632; 1×10^6 cells/ml; read-out: MIC
Description: as §1, §2

M. moganii IIDkono = test: MIC against M. moganii IIDkono by the plate diluted method
Description: as §1, §2

S. marcescens IFO 12648 = test: MIC against S. marcescens IFO 12648 by the plate diluted method; settings: Serratia marcescens, IFO12648; S. marcescens IFO 12648; 1×10^6 cells/ml; read-out: MIC
Description: as §1, §2

A. calcoaceticus Ac-54 = test: MIC against A. calcoaceticus Ac-54 by the plate diluted method; settings: Acinetobacter calcoaceticus, AC54; A. calcoaceticus Ac-54; 1×10^6 cells/ml; read-out: MIC
Description: as §1, §2

P. aeruginosa ATCC-10145 = test: MIC against P. aeruginosa ATCC-10145 by the plate diluted method; settings: Pseudomonas aeruginosa, ATCC10145; P. aeruginosa ATCC-10145; 1×10^6 cells/ml; read-out: MIC
Description: as §1, §2

P. aeruginosa E-2 = test: MIC against P. aeruginosa E-2 by the plate diluted method; settings: Pseudomonas aeruginosa, E2; P. aeruginosa E-2; 1×10^6 cells/ml; read-out: MIC
Description: as §1, §2

[1] = M. moganii IIDkono, 1×10^6 cells/ml, read-out: MIC
[2] = S. aureaus FDA-209P, 1×10^6 cells/ml, read-out: MIC

Structure (SMILES)	MIC (S. aureaus FDA-209P)	MIC (E. coli No. 29)	MIC (K. pneumoniae NCTC-9632)	MIC (M. moganii IIDkono; [1])	MIC (S. marcescens IFO 12648)	MIC (A. calcoaceticus Ac-54)	MIC (P. aeruginosa ATCC-10145)	MIC (P. aeruginosa E-2)	MIC (S. aureaus FDA-209P; [2])	MIC (M. moganii IIDkono)
CC(C)(O/N=C(\C(=O)N[C@@H]1C(=O)N2C(C(=O)[O-])=C(CSc3cc[n+](CC(=O)NNC(=O)c4ccc(O)c(O)c4)cc3)SC[C@H]12)c1csc(N)n1)C(=O)O [No. 4]	3.13 µg/mL (≈ 3.98 µM)	0.012 µg/mL (≈ 0.0153 µM)	≤ 0.006 µg/mL	0.024 µg/mL (≈ 0.0305 µM)	0.024 µg/mL (≈ 0.0305 µM)	0.2 µg/mL (≈ 0.254 µM)	0.1 µg/mL (≈ 0.127 µM)	0.1 µg/mL (≈ 0.127 µM)		
CC(C)(O/N=C(\C(=O)N[C@@H]1C(=O)N2C(C(=O)[O-])=C(CSc3cc[n+](Cc4cc(=O)c(O)c[nH]4)cc3)CS[C@H]12)c1csc(N)n1)C(=O)O [No. 14]		0.05 µg/mL (≈ 0.0712 µM)	0.012 µg/mL (≈ 0.0171 µM)		0.024 µg/mL (≈ 0.0342 µM)	0.39 µg/mL (≈ 0.556 µM)	0.2 µg/mL (≈ 0.285 µM)	0.1 µg/mL (≈ 0.142 µM)	6.25 µg/mL (≈ 8.91 µM)	0.05 µg/mL (≈ 0.0712 µM)
Nc1nc(/C(=N/OCc2cc(=O)c(O)cn2O)C(=O)N[C@@H]2C(=O)N3C(C(=O)O)=C(CSc4nncs4)SC[C@H]23)cs1 [No. 2, (6S,7S)-7-[(Z)-2-(2-Aminothiazol-4-yl)-2-(1,5-dihydroxy-4-pyridone-2-ylmethoxyimino)acetamide]-3-(1,3,4-thiadiazol-5-yl)thiomethyl-isocephem-4-carboxylic acid]		0.024 µg/mL (≈ 0.0376 µM)	≤ 0.006 µg/mL	0.1 µg/mL (≈ 0.157 µM)	0.05 µg/mL (≈ 0.0783 µM)	0.1 µg/mL (≈ 0.157 µM)	0.05 µg/mL (≈ 0.0783 µM)	0.05 µg/mL (≈ 0.0783 µM)	12.5 µg/mL (≈ 19.6 µM)	
Nc1nc(/C(=N/OCc2cc(=O)c(O)cn2O)C(=O)N[C@@H]2C(=O)N3C(C(=O)O)=C(CSc4nnnn4CC(=O)O)SC[C@H]23)cs1 [No. 9, (6S,7S)-7-[(Z)-2-(2-aminothiazol-4-yl)-2-(1,5-dihydroxy-4-pyridone-2-ylmethoxyimino)acetamide]-3-(1-carboxymethyl-1H-tetrazole-5-ylthiomethyl)isocephem-4-carboxylic acid]		0.012 µg/mL (≈ 0.0176 µM)	≤ 0.006 µg/mL	0.024 µg/mL (≈ 0.0353 µM)	0.012 µg/mL (≈ 0.0176 µM)	0.012 µg/mL (≈ 0.0176 µM)	0.05 µg/mL (≈ 0.0735 µM)	0.05 µg/mL (≈ 0.0735 µM)	100 µg/mL (≈ 147 µM)	
CO/N=C(\C(=O)N[C@@H]1C(=O)N2C(C(=O)[O-])=C(CSc3cc[n+](CC(=O)c4ccc(O)c(O)c4)cc3)CS[C@H]12)c1csc(N)n1 [No. 17, (6R,7R)-[(Z)-2-(2-aminothiazol-4-yl)-2-methoxyiminoacetamide]-3-[[1-[2-(3,4-dihydroxyphenyl)-2-oxo]ethyl]-4-pyridinio]thiomethyl-3-cephem-4-carboxylat]		0.012 µg/mL (≈ 0.0183 µM)	0.012 µg/mL (≈ 0.0183 µM)	0.1 µg/mL (≈ 0.152 µM)	0.05 µg/mL (≈ 0.0761 µM)	0.1 µg/mL (≈ 0.152 µM)	0.2 µg/mL (≈ 0.305 µM)	0.39 µg/mL (≈ 0.594 µM)	0.39 µg/mL (≈ 0.594 µM)	
Nc1nc(/C(=N/OCc2cc(=O)c(O)cn2O)C(=O)N[C@@H]2C(=O)N3C(C(=O)[O-])=C(CSc4cc[n+](CC(=O)O)cc4)SC[C@H]23)cs1 [No. 12, (6S,7S)-7-[(Z)-2-(2-aminothiazol-4-yl)-2-(1,5-dihydroxy-4-pyridone-2-ylmethoxyimino)acetamide]-3-[(1-carboxymethyl-4-pyridinio)thiomethyl]isocephem-4-carboxylate]		0.012 µg/mL (≈ 0.0174 µM)	≤ 0.006 µg/mL	0.1 µg/mL (≈ 0.145 µM)	0.05 µg/mL (≈ 0.0725 µM)	0.39 µg/mL (≈ 0.565 µM)	0.1 µg/mL (≈ 0.145 µM)	0.2 µg/mL (≈ 0.29 µM)	12.5 µg/mL (≈ 18.1 µM)	
CC(C)(O/N=C(\C(=O)N[C@@H]1C(=O)N2C(C(=O)[O-])=C(CSc3cc[n+](CC(=O)NNC(=O)c4ccc(O)c(O)c4)cc3)CS[C@H]12)c1csc(N)n1)C(=O)O [No. 15, (6R,7R)-7-[(Z)-2-(2-aminothiazol-4-yl)-2-(1-carboxy-1-methylethoxy)imino]acetamide-3-[1-(N-3,4-dihydroxybenzamide)carbamoylmethyl-4-pyridinio]thiomethyl-3-cephem-4-carboxylate]	3.13 µg/mL (≈ 3.98 µM)	0.012 µg/mL (≈ 0.0153 µM)	0.012 µg/mL (≈ 0.0153 µM)		0.05 µg/mL (≈ 0.0635 µM)	0.1 µg/mL (≈ 0.127 µM)	0.05 µg/mL (≈ 0.0635 µM)	0.05 µg/mL (≈ 0.0635 µM)		0.05 µg/mL (≈ 0.0635 µM)
Cc1nnc(SCC2=C(C(=O)O)N3C(=O)[C@@H](NC(=O)/C(=N\OCc4cc(=O)c(O)cn4O)c4csc(N)n4)[C@H]3CS2)s1 [No. 1, (6S,7S)-7-[(Z)-2-(2-Aminothiazol-4-yl)-2-(1,5-dihydroxy-4-pyridone-2-ylmethoxyimino)acetamide]-3-(2-methyl-1,3,4-thiadiazol-5-yl)thiomethyl-isocephem-4-carboxylic acid]		0.024 µg/mL (≈ 0.0368 µM)	0.012 µg/mL (≈ 0.0184 µM)		0.024 µg/mL (≈ 0.0368 µM)	0.1 µg/mL (≈ 0.153 µM)	0.1 µg/mL (≈ 0.153 µM)	0.2 µg/mL (≈ 0.306 µM)	25 µg/mL (≈ 38.3 µM)	0.05 µg/mL (≈ 0.0766 µM)
